# From article PMC11078990, “Identification and characterization of small molecule inhibitors of the LINE-1 retrotransposon endonuclease” (Nature Communications, 2024)
# “And” between values parts separate entries of the source, which are not always exact repeats. Equal values may be shown once. Read-outs that look alike come from different tables or passages of the source.
# Columns and labels:
# [1] = molecular target: L1 EN (LINE-1 retrotransposon endonuclease domain) (Homo sapiens, UniProt O00370, N5T); test: Fluorescent oligonucleotide EN nicking activity assay; format: biochemical
# [2] = molecular target: T1, APE1 (Homo sapiens, UniProt P27695); test: APE1 fluorescent oligonucleotide activity assay (abasic site substrate); format: biochemical; settings: for activity at 25 µM: read-out: APE1 activity (%)
# T1 construct: purchased New England Biolabs (NEB) M0282S
# [3] = test system: substrate oligonucleotide used in the EN activity assay; format: binding; parameters: key to Binding Detected? (Y/N): Binding Detected? (Y/N); Binding Detected? (Y/N)
# [4] = test system: L1 retrotransposition; test: HeLa dual-luciferase L1 retrotransposition assay; format: cell-based, human
# [5] = test system: L1-induced DNA damage in HeLa Tet-On cells (full-length L1); test: γ-H2AX immunofluorescence assay, full-length L1 constructs; format: cell-based, human
# [6] = test system: DNA fragmentation (comet tail length) in HeLa Tet-On cells expressing EN domain; test: Neutral comet assay, EN domain-only constructs; format: cell-based, human
# [7] = test system: senescent LF1 human diploid fibroblasts (IL6, IL1β, CCL2, IFNα, MMP3); test: RT-qPCR of inflammatory markers in replicatively senescent fibroblasts; format: cell-based
# [8] = test system: HeLa Tet-On cells; settings: human
# [9] = test system: senescent LF1 human diploid fibroblasts (IFN-I and Aging gene sets); test: RNA-seq / Gene Set Enrichment Analysis of senescent cultures; format: cell-based; settings: senescent cultures treated 1 month beginning at 3 months senescence
# [10] = read-out: EN activity, percent of no inhibitor control
# L1 EN (LINE-1 retrotransposon endonuclease domain), sequence (O00370 1-239 N5T): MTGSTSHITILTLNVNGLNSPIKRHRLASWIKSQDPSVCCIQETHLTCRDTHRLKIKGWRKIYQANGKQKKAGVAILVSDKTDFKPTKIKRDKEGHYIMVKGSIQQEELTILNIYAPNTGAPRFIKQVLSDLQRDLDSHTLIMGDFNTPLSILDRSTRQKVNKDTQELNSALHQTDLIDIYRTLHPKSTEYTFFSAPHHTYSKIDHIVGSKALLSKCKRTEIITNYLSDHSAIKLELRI
smiles,measurement,setting,value
C/C(C[C@H](c1ccccc1)c1c(O)c2ccccc2oc1=O)=N\Nc1ccc([N+](=O)[O-])cc1[N+](=O)[O-] [AD3],"EN activity, percent of no inhibitor control",[1]; 1 µM,108.117% and 78.9256% and 93.3444%
same,"EN activity, percent of no inhibitor control",[1]; 5 µM,93.5701% and 96.3453%
same,"EN activity, percent of no inhibitor control",[1]; 10 µM,99.3729%
same,"EN activity, percent of no inhibitor control",[1]; 25 µM,99.0637% and 102.756%
same,"EN activity, percent of no inhibitor control",[1]; 50 µM,87.9685% and 80.8738% and 62.1552%
same,"EN activity, percent of no inhibitor control",[1]; 100 µM,53.1232% and 37.4643% and 59.5468%
same,"EN activity, percent of no inhibitor control",[1]; 250 µM,26.1232% and 25.9631%
same,"EN activity, percent of no inhibitor control",[1]; 500 µM,1.104% and 2.0558% and 4.103%
same,"EN activity, percent of no inhibitor control",[1]; 1000 µM,0.8695% and 0.8159%
same,remaining activity at 5 µM,[1]; [10],89.6%
same,remaining activity at 10 µM,[1]; [10],99.4%
same,remaining activity at 25 µM,[1]; [10],95.7%
same,remaining activity at 250 µM,[1]; [10],25.7%
same,remaining activity at 1000 µM,[1]; [10],1.63%
same,"APE1 percent activity, Replicate 1",[2],92.838%
same,"APE1 percent activity, Replicate 3",[2],104.006%
same,"APE1 percent activity, average",[2],103.516%
same,"Percent APE1 activity, average",[2],95.58%
same,"Percent APE1 activity, replicates",[2],101.896% and 94.978% and 89.8705%
same,activity at 25 µM,[2],104 ± 10.4%
same,Binding Detected? (Y/N),[3],N
same,"Luciferase (retrotransposition), average",[4],1.378
same,"Luciferase (retrotransposition), replicates",[4],0.9116 and 1.591 and 1.485 and 1.524
same,"Inhibition of DNA damage, full-length L1 experiments",[5],best inhibition
same,"Nuclei comet tail length, average (WT = 1)",[6],0.568
same,"IL1β RT-qPCR, average (EP = 1)",[7],4.703
same,"IL6 RT-qPCR, average (EP = 1)",[7],6.462
same,Inhibition of inflammation in senescent cells,[7],showed efficacy
same,"MMP3 RT-qPCR, average (EP = 1)",[7],2.136
same,"PrestoBlue (viability), average",[8],15.41
C/C(=N\Nc1ccc([N+](=O)[O-])cc1[N+](=O)[O-])c1ccc(-n2nncc2C(C)(C)C)cc1 [AD7],"EN activity, percent of no inhibitor control",[1]; 5 µM,101.994% and 98.1742% and 77.1828%
same,"EN activity, percent of no inhibitor control",[1]; 25 µM,96.2152% and 94.2464%
same,"EN activity, percent of no inhibitor control",[1]; 50 µM,105.792% and 87.7855%
same,"EN activity, percent of no inhibitor control",[1]; 100 µM,94.7448% and 86.2812%
same,"EN activity, percent of no inhibitor control",[1]; 250 µM,48.1744% and 80.4178% and 71.8348%
same,"EN activity, percent of no inhibitor control",[1]; 500 µM,47.3691%
same,"EN activity, percent of no inhibitor control",[1]; 750 µM,44.5063% and 42.7569%
same,"EN activity, percent of no inhibitor control",[1]; 1000 µM,33.3657% and 34.4723%
same,"EN activity, percent of no inhibitor control",[1]; 1500 µM,8.772% and 6.335%
same,remaining activity at 25 µM,[1]; [10],86.8%
same,remaining activity at 50 µM,[1]; [10],88.2%
same,remaining activity at 100 µM,[1]; [10],97.9%
same,remaining activity at 500 µM,[1]; [10],61.3%
same,remaining activity at 750 µM,[1]; [10],34.4%
same,remaining activity at 1000 µM,[1]; [10],39.3%
same,remaining activity at 1500 µM,[1]; [10],7.91%
same,"APE1 percent activity, Replicate 1",[2],123.061%
same,"APE1 percent activity, Replicate 2",[2],113.794%
same,"APE1 percent activity, Replicate 3",[2],119.588%
same,"APE1 percent activity, average",[2],118.815%
same,"Percent APE1 activity, average",[2],103.1%
same,"Percent APE1 activity, replicates",[2],105.066% and 99.3868% and 104.87%
same,activity at 25 µM,[2],119 ± 4.7%
same,Binding Detected? (Y/N),[3],N
same,Effect on L1 retrotransposition,[4],some activity in the retrotransposition assay
same,"Luciferase (retrotransposition), average",[4],2.314
same,"Luciferase (retrotransposition), replicates",[4],2.087 and 1.842 and 2.6465 and 2.682
same,"Nuclei comet tail length, average (WT = 1)",[6],0.8142
same,"PrestoBlue (viability), average",[8],16.01
"Nc1ccn([C@@H]2CS[C@H](CO)O2)c(=O)n1 [3TC, Lamivudine, reference compound]","Luciferase (retrotransposition), average","[4]; Figure 4a Graph 1, 10 μM, 0 μM average 9.554",1.753
same,"Luciferase (retrotransposition), replicates","[4]; Figure 4a Graph 1, 10 μM, Replicates 1-4, 0 μM average 9.554",1.525 and 1.282 and 1.336 and 2.868
same,"Luciferase (retrotransposition), average","[4]; Figure 4a Graph 2, 10 μM, 0 μM average 9.679",1.648
same,"Luciferase (retrotransposition), replicates","[4]; Figure 4a Graph 2, 10 μM, Replicates 1-4, 0 μM average 9.679",2.547 and 1.556 and 1.337 and 1.153
same,"Luciferase (retrotransposition), average","[4]; Figure 4a Graph 3, 10μM, 0μM average 17.91",3.723
same,"Luciferase (retrotransposition), replicates","[4]; Figure 4a Graph 3, 10μM, Replicates 1-4, 0μM average 17.91",3.272 and 3.5538 and 3.891 and 4.176
same,"Luciferase (retrotransposition), average","[4]; Figure 4a Graph 4, 10μM, 0μM average 3.426",0.6208
same,"Luciferase (retrotransposition), replicates","[4]; Figure 4a Graph 4, 10μM, Replicates 1-4, 0μM average 3.426",0.3413 and 0.6639 and 1.079 and 0.3984
same,"Luciferase (retrotransposition), average","[4]; Figure 4a Graph 5, 10μM, 0μM average 4.537",0.4847
same,"Luciferase (retrotransposition), replicates","[4]; Figure 4a Graph 5, 10μM, Replicates 1-4, 0μM average 4.537",0.5984 and 0.4472 and 0.3986 and 0.4945
same,"MMP3 RT-qPCR, average (EP = 1)","[7]; 10 μM, senescent cells, SEN control 5.499, 3 replicates",1.892
same,"IL1β RT-qPCR, average (EP = 1)","[7]; 10 μM, senescent cells, SEN control 8.256, 3 replicates",10.61
same,"CCL2 RT-qPCR, average (EP = 1)","[7]; 10 μM, senescent cells, SEN control 8.589, 3 replicates",4.199
same,"IFNα RT-qPCR, average (EP = 1)","[7]; 10 μM, senescent cells, SEN control 18.65, 3 replicates",15.66
same,"IL6 RT-qPCR, average (EP = 1)","[7]; 10 μM, senescent cells, SEN control 22.45, 3 replicates",13.65
same,"Expression of IFN-I gene set and aging gene set (RNA-seq, GSEA)",[9],decreased expression
Nn1cnn2c(SCC(=O)Nc3nnc(SCC(=O)Nc4ccc(S(N)(=O)=O)cc4)s3)nnc12 [AD29],"EN activity, percent of no inhibitor control","[1]; [Inhibitor] 0.5 μM, technical replicates 1-3, Fig. 2b source data, 0.5 µM",96.7352% and 105.013%
same,remaining activity at 0.5 µM,"[1]; [Inhibitor] 0.5 μM, technical replicates 1-3, Fig. 2b source data, read-out: EN activity, percent of no inhibitor control",97.3%
same,"EN activity, percent of no inhibitor control","[1]; [Inhibitor] 5 μM, technical replicates 1-3, Fig. 2b source data, 5 µM",89.8647% and 119.947% and 95.1949%
same,"EN activity, percent of no inhibitor control","[1]; [Inhibitor] 10 μM, technical replicates 1-3, Fig. 2b source data, 10 µM",90.2289% and 93.2039%
same,remaining activity at 10 µM,"[1]; [Inhibitor] 10 μM, technical replicates 1-3, Fig. 2b source data, read-out: EN activity, percent of no inhibitor control",89.2%
same,"EN activity, percent of no inhibitor control","[1]; [Inhibitor] 25 μM, technical replicates 1-3, Fig. 2b source data, 25 µM",63.7726% and 70.2623%
same,remaining activity at 25 µM,"[1]; [Inhibitor] 25 μM, technical replicates 1-3, Fig. 2b source data, read-out: EN activity, percent of no inhibitor control",64.2%
same,"EN activity, percent of no inhibitor control","[1]; [Inhibitor] 50 μM, technical replicates 1-3, Fig. 2b source data, 50 µM",34.0986% and 27.5313%
same,remaining activity at 50 µM,"[1]; [Inhibitor] 50 μM, technical replicates 1-3, Fig. 2b source data, read-out: EN activity, percent of no inhibitor control",24.6%
same,"EN activity, percent of no inhibitor control","[1]; [Inhibitor] 100 μM, technical replicates 1-3, Fig. 2b source data, 100 µM",8.595% and 8.689%
same,remaining activity at 100 µM,"[1]; [Inhibitor] 100 μM, technical replicates 1-3, Fig. 2b source data, read-out: EN activity, percent of no inhibitor control",5.53%
same,"EN activity, percent of no inhibitor control","[1]; [Inhibitor] 250 μM, technical replicates 1-3, Fig. 2b source data, 250 µM",1.937% and 2.743%
same,remaining activity at 250 µM,"[1]; [Inhibitor] 250 μM, technical replicates 1-3, Fig. 2b source data, read-out: EN activity, percent of no inhibitor control",2.22%
same,"EN activity, percent of no inhibitor control","[1]; [Inhibitor] 500 μM, technical replicates 1-3, Fig. 2b source data, 500 µM",1.591% and 1.804% and 0.7296%
same,"APE1 percent activity, Replicate 1","[2]; compound at 25 μM, Replicate 1",83.829%
same,"APE1 percent activity, Replicate 2","[2]; compound at 25 μM, Replicate 2",79.0708%
same,"APE1 percent activity, Replicate 3","[2]; compound at 25 μM, Replicate 3",80.6497%
same,"APE1 percent activity, average","[2]; compound at 25 μM, average of 3 replicates",81.1831%
same,activity at 25 µM,"[2]; inhibitors at 25 μM, relative to 0 μM inhibitor control, mean ± s.d., 3 independent experiments",81.2 ± 2.4%
same,Binding Detected? (Y/N),[3],N
same,"Luciferase (retrotransposition), average","[4]; Figure 4a Graph 4, 50μM, 0μM average 3.426",2.638
same,"Luciferase (retrotransposition), replicates","[4]; Figure 4a Graph 4, 50μM, Replicates 1-4, 0μM average 3.426",2.47 and 2.591 and 2.484 and 3.007
same,"Nuclei comet tail length, average (WT = 1)","[6]; 50 μM inhibitor, EN domain-only construct, neutral comet assay, normalised to WT",0.4772
same,"PrestoBlue (viability), average","[8]; 48 h, 50 μM",15.21
